Measurements from paper PMC7696255, “In-Silico Identified New Natural Sortase A Inhibitors Disrupt S. aureus Biofilm Formation” (International Journal of Molecular Sciences, 2020).
≈ marks a conversion by molar mass, not a printed value. Counter-ions that a name gives are not always drawn. Like-named read-outs stand apart in the source and are kept apart here.

Tests used:
HepG2 cells = test: Mammalian cell cytotoxicity assay (PrestoBlue); format: cell-based, human; conditions: read-out: Mammalian cell lines IC50
Method: (§1) A549 and HepG2 cells were seeded at 1500 and 2500 cells per well, respectively, in 384-well microplates and incubated at 37 °C in the presence of 5% CO2. The next day, cells were treated with compounds then incubated for an additional 72 h. To assess the cytotoxic effect of the compounds PrestoBlue cell viability reagent (Life Technologies, Carlsbad, CA, USA) was used. After the 72 h incubation with compounds, the 384-well assay plates were incubated with this viability indicator dye for 2 h (A549) and 4 h (HepG2) before fluorescence reading at Ex/Em = 560 nm/590 nm on the Tecan Infinite M1000 Pro reader. Puromycin (data not shown) was used as the positive control against both cell lines. All tests were executed in triplicate on two separate experiments.

A549 cells = test: Mammalian cell cytotoxicity assay (PrestoBlue); format: cell-based, human; conditions: read-out: Mammalian cell lines IC50
Method: as §1

S. aureus sortase A [1] = molecular target: T1, S. aureus sortase A (Staphylococcus aureus, UniProt Q2FV99); test: SrtA enzyme inhibition FRET assay, 5-FAM/QXL 520 substrate; format: biochemical
T1 construct: purchased AnaSpec AS-72229
T1 sequence (Q2FV99 whole entry): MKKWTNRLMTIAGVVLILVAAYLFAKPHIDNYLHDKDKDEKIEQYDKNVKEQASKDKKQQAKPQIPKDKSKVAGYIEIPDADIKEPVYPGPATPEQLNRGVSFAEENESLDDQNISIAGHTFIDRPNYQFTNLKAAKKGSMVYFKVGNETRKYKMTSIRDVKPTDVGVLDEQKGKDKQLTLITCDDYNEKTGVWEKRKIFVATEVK
Method: (§2) The enzymatic reactions were carried out in black, low-binding polystyrene 384 well plates (Greiner Bio-One). […] SrtA was pre-incubated in the reaction buffer with compounds for 1 h at room temperature prior to the addition of the FRET substrate. Assays were performed in 50 µL reactions with 50 ng of S. aureus sortase A and 25 µM of DABCYL-LPETG-EDANS substrate or 1 µM of 5-FAM/QXL^TM 520 substrate. The inhibitory activity of the compounds was determined by monitoring the rise in fluorescence intensity over 24 h at Ex/Em = 336 nm/490 nm for the DABCYL/EDANS substrate and Ex/Em = 490 nm/520 nm for the 5-FAM/QXL 520 substrate on a Tecan Infinite M1000 Pro reader.
(§3) Raw fluorescence data were corrected for autofluorescence before computing percentage inhibition values. These percentage inhibition values were plotted against compound concentration using GraphPad Prism version 8.0 by nonlinear regression analysis using least squares fit method for IC50 determination. Testing was performed twice to ensure reproducibility of results.

S. aureus sortase A [2] = molecular target: T1, S. aureus sortase A; test: SrtA enzyme inhibition FRET assay, DABCYL-LPETG-EDANS substrate; format: biochemical
Method: as §2, §3

S. aureus Newman = test: S. aureus whole cell assay (MIC, microbroth dilution); format: cell-based, Staphylococcus aureus; conditions: for MIC: Staphylococcus aureus, NEWMAN
Method: (§4) Minimum inhibitory concentration (MIC) tests were performed according to procedures of the Clinical Laboratory Standards Institute (CLSI) with minor changes using the microbroth dilution technique in a 384-well setup. Inoculum of each S. aureus strain was prepared by suspending segregated colonies in sterile saline to a 0.5 McFarland standard. An inoculum of 2–8 × 10^5 CFU/mL was incubated with the compounds for 24 h at 37 °C. Gentamicin (data not shown) was incubated in the same manner as the test compounds and served as a positive control. The effect of the compounds on bacterial growth was calculated by quantifying the optical density at 600 nm on a microplate reader (Tecan, Infinite M1000, Salzburg, Austria). Dilutions of the inoculum were cultivated on agar to verify the validity of the inoculum seeding density and absence of contamination. All tests were executed in triplicate during two separate experiments.

S. aureus ATCC 25923 = test: as above; format: cell-based, Staphylococcus aureus; conditions: for MIC: Staphylococcus aureus, ATCC25923, 24 h
Method: as §4

[3] = test system: S. aureus ATCC 33591 (MRSA) pre-formed biofilms; test: Biofilm inhibitory assay (crystal violet), pre-formed biofilms; format: cell-based, Staphylococcus aureus; conditions: in words
Method: (§5) The effectiveness of SrtA inhibitors in reducing biofilm formation and growth was assessed using the crystal violet (CV) biofilm assay with the following modifications. TSB with 2% glucose (TSB without glucose for E. coli) was inoculated with 10^5 CFU/mL of S. aureus and E. coli overnight cultures. A total of 90µl of this cell suspension was then dispensed into 96-well microtiter plates containing 10 µL of different concentrations of the SrtA inhibitors. After 24 h growth at 37 °C the plates were washed with PBS to remove unbound cells and heat fixed at 60 °C for 30 min. Next, the wells were stained with 0.1% crystal violet solution for 15 min at room temperature. At the completion of the incubation plates were washed 3 times with PBS and dried. Then the crystal violet dye from the biofilm was solubilized with 200 µL of DMSO. A total of 100 µL of this solution was then moved to a new microtiter plate for absorbance measurement at 595 nm. For pre-formed biofilm assay, the plates were prepared and incubated as mentioned earlier, without SrtA inhibitors. After 24 h incubation, the culture supernatant was removed gently and biofilm carefully washed with sterile PBS. Next, 10 µL of different concentrations of SrtA inhibitors with 90 µL of TSB with 2% glucose were added carefully into the wells and incubated at 37 °C for 24 h. The amount of crystal violet staining of biofilm was measured as described above. The results were reported as percent inhibition normalized to the wild type control. Two independent experiments were performed in triplicate to ensure reproducibility.

[4] = test system: E. coli ATCC 25922 biofilm formation; test: Biofilm inhibitory assay (crystal violet), biofilm formation; format: cell-based; conditions: in words; CV assay
Method: as §5, with “Next, 10 µL of different concentrations of SrtA inhibitors with 90 µL of TSB with 2% glucose were added carefully into the wells and incubated at 37 °C for 24 h.” left out, “The results were reported as percent inhibition normalized to the wild type control. Two independent experiments were performed in triplicate to ensure reproducibility.” left out

[5] = test system: S. aureus ATCC 33591 (MRSA) biofilm formation; test: as above; format: cell-based, Staphylococcus aureus
Method: as §5

[6] = test system: S. aureus Newman biofilm formation; test: as above; format: cell-based, Staphylococcus aureus; conditions: CV assay; for IC50: biofilm formation, read-out: Biofilm Inhibition IC50
Method: as §5

[7] = test system: adherence of S. aureus Newman to fibrinogen; test: Fibrinogen binding assay; format: cell-based, Staphylococcus aureus
Method: Fibrinogen binding assay was completed as described but with slight revision. A flat-bottom 96-well plate was covered with fibrinogen protein by adding 50 µL of 20 µg/mL of fibrinogen protein from bovine plasma diluted in saline and incubated at 4 °C for 24 h. The coated plates were gently rinsed twice with PBS and blocked for 60 min with 4% bovine serum albumin (BSA). The plates were then washed 3 times with PBS. For this assay, S. aureus Newman strain was cultivated in TSB at 37 °C to exponential phase (OD600 = 0.5) and then the bacterial culture was incubated with various concentrations of test compound or control for 2.5 h. Then the cells were pelleted by centrifugation at 10,000× g for 10 min, the supernatants were removed and the cell pellets stored at −20 °C. The following day, cell pellets were suspended in PBS and dispersed in 100 μL aliquots to distinct wells of fibrinogen-coated 96-well plates. After 2 h of growth at 37 °C, the bacterial supernatant was discarded and the wells were rinsed gently with 150 µl PBS. Then the bacterial cells were fixed with 2% (v/v) glutaraldehyde and incubated for 30 min at 25 °C. After a wash with PBS, bound cells were stained with 0.1% crystal violet dye for 15 min. Plates were rinsed twice again with PBS, enclosed with aluminum foil, then stored at room temperature to dry overnight. On the next day absorbance was measured at 570 nm. The results were described as the percent of adhesion inhibition normalized to the wild type control. Two independent experiments were performed in triplicate to ensure reproducibility.

[8] = Sortase A IC50, 5-FAM/QXL substrate, 10 min
[9] = Sortase A IC50, DABCYL-LPETG-EDANS substrate, 4 h

SMILES | IC50 (HepG2 cells; Homo sapiens, HepG2, 72 h) [µM] | IC50 (A549 cells; Homo sapiens, A549, 72 h) [µM] | IC50 (S. aureus sortase A [1]; [8]) [µM] | IC50 (S. aureus sortase A [2]; [9]) [µM] | MIC (S. aureus Newman; 24 h) [µM] | MIC (S. aureus ATCC 25923) [µM] | IC50 (S. aureus sortase A [1]) [µM] | IC50 (S. aureus sortase A [2]) [µM] | other results
O=C(/C=C/c1ccc(O)c(O)c1)O[C@@H]1C[C@](O)(C(=O)O)C[C@@H](O)[C@H]1O [Chlorogenic acid, reference compound] | > 200 | > 200 | 144 ± 16 | 88 ± 5.6 | > 200 | > 200 | – | – | IC50 (S. aureus sortase A [1]; Sortase A IC50, 5-FAM/QXL substrate, after 24 h): 103 ± 31 µM; growth inhibition of S. aureus (S. aureus Newman; at 200 µM, strain not given): did not inhibit the growth
COc1ccc(C[C@H](N)C(=O)N[C@H]2[C@@H](O)[C@H](n3cnc4c(N(C)C)ncnc43)O[C@@H]2CO)cc1 [Compound N51, Puromycin hydrochloride] | – | – | – | – | – | – | > 200 | > 200 | –
CC(C)(O)[C@H]1O[C@H]2CC[C@@]3(C)[C@@](O)(CC[C@H]4Cc5c([nH]c6ccccc56)[C@@]43C)C2=CC1=O [Compound N563, Paxilline] | – | – | – | – | – | – | > 200 | > 200 | –
CC(C)=CCc1c(O)c(CC=C(C)C)c2occ(-c3ccc(O)cc3)c(=O)c2c1O [Compound N942, 6,8-diprenylgenistein] | – | – | – | – | – | – | > 200 | > 200 | –
CC(C)=CCc1c2c(c(O)c3c(=O)c(-c4ccc(O)c(O)c4)coc13)C=CC(C)(C)O2 [Compound N1048, Auriculasin] | – | – | – | – | – | – | > 200 | > 200 | –
Cc1cc(O)c2c(c1)C(=O)c1c(c(O)cc(O)c1-c1c(O)cc(O)c3c1C(=O)c1cc(C)cc(O)c1C3=O)C2=O [Compound N1287, Skyrin] | 63.9 ± 5.1 | 64.7 ± 6.2 | 31 ± 0.3 | 24 ± 2.1 | 7.3 ± 0.8 (≈ 3.93 µg/mL) | 7.2 ± 0.1 (≈ 3.88 µg/mL) | – | – | IC50 (HepG2 cells; 72 h): 60 to 90 µM; IC50 (A549 cells; 72 h): 60 to 90 µM; inhibitory activity on MRSA pre-formed biofilms [3]: not against pre-formed biofilms; effect on E. coli ATCC 25922 biofilm formation [4]: did not show any effect; IC50 (S. aureus sortase A [2]; SrtA enzymatic activity IC50, text summary, Figure 2A,B, both substrates): < 50 µM; IC50 ([5]; Staphylococcus aureus, S. aureus ATCC 33591 (MRSA), biofilm formation, read-out: Biofilm Inhibition IC50): 41.9 µM; inhibitory activity on MRSA biofilm formation ([5]; in words): exhibited inhibitory activity; concentration giving >90% inhibition of biofilm formation [6]: 23 µM; IC50 ([6]; Staphylococcus aureus, NEWMAN): 12.2 ± 4.1 µM; IC50 [6]: 12 µM; IC50 ([7]; Staphylococcus aureus, NEWMAN, read-out: Fibrinogen adherence Inhibition IC50): 9.5 ± 0.5 µM; concentration giving ≥90% prevention of S. aureus Newman adherence to fibrinogen ([7]; compared to untreated wildtype strain): 46 µM; S. aureus MIC (S. aureus Newman; Newman, 24 h): 5 to 8 µM; S. aureus MIC (S. aureus ATCC 25923; 24 h): 5 to 8 µM
